One data set relates to L-1210 leukemia. Put plainly: Anti-tumor activity against L-1210 leukemia in mice. It counts as in vivo, mouse. The following applies: intraperitoneal, 5 days, BDF1 female mice. The protocol: Anti-tumor activity against L-1210 leukemia in mice
BDF1 female mice weighing 18-23 g (one group: 3 mice) were used. The mice were intraperitoneally inoculated with mouse L-1210 leukemia cells (1×10^5). […] As a control, 50 mM phosphate buffer (pH 7.4) without a test compound was intraperitoneally administered likewise. Based on the data, the life-prolongation ratio of the test compound was calculated.

A further data set can be described thus: Acute toxicity. The following applies: mouse, in vivo, ip; ICR male mice weighing 18-23 g, intraperitoneally administered for one week; read-out: 50% lethal toxicity (LD50). As to the method:
ICR male mice weighing 18-23 g were intraperitoneally administered with the test compounds for one week, and the 50% lethal toxicity (LD50 : mg/kg) was measured by a conventional method.

Turning to `Nc1nc(O)c2c(n1)n([C@@H]1O[C@H](CO)[C@@H](O)[C@H]1O)c[n+]2[O-]` [Compound A, 7-hydroxyguanine riboside], the Life-prolongation ratio is recorded as 128.9 with L-1210 leukemia (1.0 mg/kg/day), 148.2 in the data set on L-1210 leukemia (4.0 mg/kg/day) and 148.2 in the data set with L-1210 leukemia (16.0 mg/kg/day). Moreover, in the data set “Acute toxicity”, the LD50 came out at 192 mg/kg.
With `Nc1nc(O)c2c(n1)n([C@H]1C[C@H](O)[C@@H](CO)O1)c[n+]2[O-]` [Compound B, 7-hydroxyguanine deoxyriboside], the Life-prolongation ratio is 120.5 with L-1210 leukemia (1.0 mg/kg/day), 160.2 in the data set on L-1210 leukemia (4.0 mg/kg/day) and 168.7 in the data set on L-1210 leukemia (16.0 mg/kg/day). The LD50 in the data set “Acute toxicity” came to 172 mg/kg.

(Values after US4786723A, “7-hydroxyguanine compounds, process for preparing said compounds, and anti-tumor agent containing the same” (Kanegafuchi Chemical Industry Co., Ltd., priority 1985, dated 1988).)
